The results in this text go back to US9364448B2, “Nitisinone for treatment of oculocutaneous/ocular albinism and for increasing pigmentation” (The United States of America, as represented by the …, priority 2010, dated 2016).

In test [1] the test system is C57BL/6J-Tyr^c-h/c-h mice (OCA1b model). Kind of test: Transmission electron microscopy of iris, RPE and choroid, Tyr^c-h/c-h mice. Type of test: in vivo, mouse. The following applies: treated vs controls, statistically significant in all three tissues, FIG. 4. The procedure: Transmission Electron Microscopy. Eyes from drug and vehicle-treated mice were dissected and divided into anterior and posterior segments (n=2 eyes from 2 separate mice in each group). The iris and posterior part (choroid, RPE and retina) of the eyes were removed and fixed in 2% glutaraldehyde and 2% paraformaldehyde in 0.1 M sodium phosphate buffer (PB), pH 7.4 for about 12 hours at room temperature (RT). After a wash with rinsing buffer (RB, 4% sucrose and 0.15 mM CaCl2 in PB), pH 7.4 at 4° C., tissues were postfixed in 1% OsO4 in 0.1 M PB, pH 7.4 for 1 hour. After rinsing and dehydration, tissues were embedded in Durcupan resin for 72 hours at 60° C. One micron semi-sections were used for tissue orientation. About 70-90 nm ultrasections were also collected in 200 mesh grids and counterstained with 5% uranyl acetate and 0.3% lead citrate. […]
In order to quantitate the effect of NTBC on pigmentation in ocular tissues and to assess for sub-clinical changes in ocular pigmentation, transmission electron microscopy (TEM) of iris, retinal pigment epithelium (RPE), and choroid of treated and control mice (n=4 eyes from 2 mice for each group) was performed. […]

Test [2] has as its system wild-type human melanocytes. Description: Human melanocyte melanin assay, wild-type (control). Type of test: cell-based. The following applies: 1 mM tyrosine, about one week. The procedure:
Human melanocyte culture and melanin assay. Human melanocytes were established from skin punch biopsies. Skin specimens were washed with PBS then treated with 0.25% trypsin-EDTA (Gibco 25200) for about 2 hours followed by vigorous vortexing to separate the epidermis. The epidermis was sectioned and attached to scored patches on the bottom of a 6-well polystyrene culture dish before being covered with melanocyte media. About 1000 ml of melanocyte media was made from 950 ml Ham's F10 (Gibco 1550), 25 ml FBS, 5 ug bFGF (Sigma F0291), 10 μg endothelin (Sigma, E7764, Sigma Chemicals, St. Louis, Mo.), 7.5 mg IBMX (Sigma 17018), 30 μg cholera toxin (Sigma C8052), 3.3 μg TPA (Sigma P8139), 10 ml PenStrepGlutamine, 1 ml fungizone and the media was 0.22 μm filtered.
Melanocytes were plated on 6 well dishes and grown to confluency. Melanin assays were run in triplicate by supplementing three wells per plate with 1 mM tyrosine (Sigma T8566), using the remaining 3 wells as untreated controls. Treatment time was approximately one week. […] The OD475 was measured and converted to melanin content via a standard curve using synthetic melanin (Sigma M0418). The data were normalized to protein content, determined using a bicinchoninic (BCA) assay kit (BioRad, Inc., Hercules, Calif.). Differences between treated and untreated measurements were analyzed with a two-tailed unpaired t-test. […]

Structures are written as SMILES.

For the compound `O=C1CCCC(=O)C1C(=O)c1ccc(C(F)(F)F)cc1[N+](=O)[O-]` [NTBC, 2-(-2-nitro-4 trifluoromethylbenzoyl)-1,3 cyclohexanedione], in test [1], the “Number of pigmented melanosomes in iris, choroid and RPE (TEM)” value is “clear increase”.
Turning to `N[C@@H](Cc1ccc(O)cc1)C(=O)O` [tyrosine], the Melanin production entry in test [2] is given as “produce significant melanin”.
